Laboratory results reported in patent US8044035B2, “Pharmaceutical compositions of pyrimidine-2,4,6-triones” (priority 2004, dated 2011).
Converted amounts (≈) assume the structure as drawn. Read-outs that look alike come from different tables or passages of the source.

Assays:
[1] = tested on: allergen-induced airway inflammation in a mouse model of asthma; test: Mouse model of asthma, intraperitoneal injection of Compound I; assay type: in vivo, mice
Protocol: No inhalations were performed during even weeks.

[2] = Phase solubility studies of Compound I with cyclodextrins (excess compound, 7 days, 37° C., HPLC); assay type: physicochemical; conditions: for solubility at 7 days: 37 °C, thermodynamic from solid
Protocol: At the time of a complex formation, compound I, practically insoluble in water (<0.6 μg/ml, MW: 485), solubilizes dramatically. The increase in the solubility of compound I is thus proof of a complex formation between Compound I and the CD. Complex formation and achievement of the equilibrium is found at 20% after 1 day, 40% after 4 days, and 100% after 7 days. The solubility diagrams (FIG. 1) are carried out by adding an excess of compound I to the CD solutions of increasing concentration. After 7 days of stirring in thermostatically controlled baths at 37° C., these solutions are filtered and the solubilized compound I quantity is dosed by HPLC. The βCD and the γCD as well as their synthetic derivatives have allowed complexes with compound I to be formed. The β-CD and the HPβCD come from ROQUETTE (France), the RMβCD and the γCD have been supplied by Wacker (Germany).
The flasks containing compound I and the cyclodextrins are placed being stirred in thermostatically controlled baths at 37° C. for 7 days, so that the complexation balance is reached. After this time, the suspensions are filtered with the help of a milli-pore filter 0.22 μm in PVDF and the filtrate is dissolved in DMSO in the mobile phase to obtain concentration samples situating themselves on the calibrating line. They are then dosed thanks to the validated HPLC method, described below.
Mobile phase: mixture of phosphate buffer 0.05 M to pH=3 and methanol (30/70, v/v). Gas is extracted by an ultrasound passage for 15 minutes, output: 1 ml/min, λ of U.V. detection: 265 nm, Working temperature: 30° C., Injection volume: 20 μl.
The results of the HPLC dosages of Compound I are reproduced in the tables below (Tables 1 to 4) for each cyclodextrin.

[3] = tested on: aorta ring, formation of new vessels (angiogenesis); test: Aorta ring model of neovascularisation (inhibition of angiogenesis); assay type: cell-based; conditions: aorta ring in culture medium, final concentration 10^−6 M, 10^−7 M
Excerpt: In order to study the potential effects of the complex Compound I-cyclodextrine, a model of neovascularisation has been used. An aorta ring is cut and placed in a culture medium. This culture medium containing either: • no active principle • the complex compound I-cyclodextrins (final concentration 10-^6M, 10^−7M) • compound I dissolved in DMSO with the help of […] (final concentration 10-^6, 10-^7M).

O=C1NC(=O)C(c2ccc(-c3ccccc3)cc2)(N2CCN(c3ccc([N+](=O)[O-])cc3)CC2)C(=O)N1 [Compound I, 5-Biphenyl-4-yl-5-[4-(4-nitro-phenyl)-piperazin-1-yl]pyrimidine-2,4,6-trione]
Peribronchial inflammation scores ([1]; 3.75 to 30 mg/kg, equal efficacy of all tested formulations): significantly lowered | Tissue eosinophil infiltration score ([1]; doses of 7.5 and 25 mg/kg): significantly lowered | Allergen-induced airway eosinophilic inflammation in BAL ([1]; solution or precipitate, 3.75 to 30 mg/kg, compared to placebo, OVA-sensitized mice): lowered | solubility at 7 days ([2]; HPβCD solution, aqueous with cosolvent or surfactant or cyclodextrin, HPβCD, maximum concentration used 200 mM, read-out: Maximum solubility): 4960 µg/mL (≈ 10200 µM) | Concentration of Compound I (solubility) ([2]; RMβCD 10 mM, 37° C., 7 days): 120.6 µg/mL | solubility at 7 days ([2]; RMβCD solution, aqueous with cosolvent or surfactant or cyclodextrin, RMβCD, maximum concentration used 200 mM, read-out: Maximum solubility): 11900 µg/mL (≈ 24600 µM) | Complex formation and achievement of the equilibrium ([2]; after 1 day): 20% | Complex formation and achievement of the equilibrium ([2]; after 4 days): 40% | Complex formation and achievement of the equilibrium ([2]; after 7 days): 100% | K1:1 (stability constant) ([2]; complex with HP-βCD): 12575 M⁻¹ | K1:2 (stability constant) ([2]; complex with HP-βCD): 14.4 M⁻¹ | K1:1 (stability constant) ([2]; complex with RMβCD): 27595 M⁻¹ | K1:2 (stability constant) ([2]; complex with RMβCD): 22.88 M⁻¹ | K1:1 (stability constant) ([2]; complex with βCD): 2092 M⁻¹ | K1:1 (stability constant) ([2]; complex with γCD): 346 M⁻¹ | solubility at 7 days ([2]; cyclodextrin solution, aqueous with cosolvent or surfactant or cyclodextrin, HPβCD 10 mM, 37° C., 7 days, read-out: Concentration of Compound I (solubility)): 188 µg/mL (≈ 387 µM) | solubility at 7 days ([2]; cyclodextrin solution, aqueous with cosolvent or surfactant or cyclodextrin, HPβCD 25 mM, 37° C., 7 days, read-out: Concentration of Compound I (solubility)): 213 µg/mL (≈ 440 µM) | solubility at 7 days ([2]; cyclodextrin solution, aqueous with cosolvent or surfactant or cyclodextrin, HPβCD 50 mM, 37° C., 7 days, read-out: Concentration of Compound I (solubility)): 236 µg/mL (≈ 486 µM) | solubility at 7 days ([2]; cyclodextrin solution, aqueous with cosolvent or surfactant or cyclodextrin, HPβCD 75 mM, 37° C., 7 days, read-out: Concentration of Compound I (solubility)): 1130 µg/mL (≈ 2330 µM) | solubility at 7 days ([2]; cyclodextrin solution, aqueous with cosolvent or surfactant or cyclodextrin, HPβCD 100 mM, 37° C., 7 days, read-out: Concentration of Compound I (solubility)): 1660 µg/mL (≈ 3430 µM) | solubility at 7 days ([2]; cyclodextrin solution, aqueous with cosolvent or surfactant or cyclodextrin, HPβCD 150 mM, 37° C., 7 days, read-out: Concentration of Compound I (solubility)): 3110 µg/mL (≈ 6400 µM) | solubility at 7 days ([2]; cyclodextrin solution, aqueous with cosolvent or surfactant or cyclodextrin, HPβCD 200 mM, 37° C., 7 days, read-out: Concentration of Compound I (solubility)): 4960 µg/mL (≈ 10200 µM) | solubility at 7 days ([2]; cyclodextrin solution, aqueous with cosolvent or surfactant or cyclodextrin, RMβCD 25 mM, 37° C., 7 days, read-out: Concentration of Compound I (solubility)): 527 µg/mL (≈ 1080 µM) | solubility at 7 days ([2]; cyclodextrin solution, aqueous with cosolvent or surfactant or cyclodextrin, RMβCD 50 mM, 37° C., 7 days, read-out: Concentration of Compound I (solubility)): 1530 µg/mL (≈ 3150 µM) | solubility at 7 days ([2]; cyclodextrin solution, aqueous with cosolvent or surfactant or cyclodextrin, RMβCD 75 mM, 37° C., 7 days, read-out: Concentration of Compound I (solubility)): 3010 µg/mL (≈ 6200 µM) | solubility at 7 days ([2]; cyclodextrin solution, aqueous with cosolvent or surfactant or cyclodextrin, RMβCD 100 mM, 37° C., 7 days, read-out: Concentration of Compound I (solubility)): 4680 µg/mL (≈ 9630 µM) | solubility at 7 days ([2]; cyclodextrin solution, aqueous with cosolvent or surfactant or cyclodextrin, RMβCD 150 mM, 37° C., 7 days, read-out: Concentration of Compound I (solubility)): 8320 µg/mL (≈ 17100 µM) | solubility at 7 days ([2]; cyclodextrin solution, aqueous with cosolvent or surfactant or cyclodextrin, RMβCD 200 mM, 37° C., 7 days, read-out: Concentration of Compound I (solubility)): 12000 µg/mL (≈ 24600 µM) | solubility at 7 days ([2]; cyclodextrin solution, aqueous with cosolvent or surfactant or cyclodextrin, concentrations above 8 mM βCD, read-out: Solubility of additional complex of 1:2 stoichiometry (Cpd. I: βCD)): 1.5 µg/mL (≈ 3.09 µM) | solubility at 7 days ([2]; cyclodextrin solution, aqueous with cosolvent or surfactant or cyclodextrin, in the presence of HPβCD, CD 2 mM, 37° C., 7 days, read-out: Concentration of Compound I (solubility)): 2.4 µg/mL | solubility at 7 days ([2]; cyclodextrin solution, aqueous with cosolvent or surfactant or cyclodextrin, in the presence of HPβCD, CD 4 mM, 37° C., 7 days, read-out: Concentration of Compound I (solubility)): 6.8 µg/mL | solubility at 7 days ([2]; cyclodextrin solution, aqueous with cosolvent or surfactant or cyclodextrin, in the presence of HPβCD, CD 8 mM, 37° C., 7 days, read-out: Concentration of Compound I (solubility)): 6.6 µg/mL | solubility at 7 days ([2]; cyclodextrin solution, aqueous with cosolvent or surfactant or cyclodextrin, in the presence of HPβCD, CD 10 mM, 37° C., 7 days, read-out: Concentration of Compound I (solubility)): 3.4 µg/mL | solubility at 7 days ([2]; cyclodextrin solution, aqueous with cosolvent or surfactant or cyclodextrin, in the presence of HPβCD, CD 12 mM, 37° C., 7 days, read-out: Concentration of Compound I (solubility)): 1.6 µg/mL | solubility at 7 days ([2]; cyclodextrin solution, aqueous with cosolvent or surfactant or cyclodextrin, in the presence of HPβCD, CD 16 mM, 37° C., 7 days, read-out: Concentration of Compound I (solubility)): 1.5 µg/mL | solubility at 7 days ([2]; cyclodextrin solution, aqueous with cosolvent or surfactant or cyclodextrin, γCD 10 mM, 37° C., 7 days, read-out: Concentration of Compound I (solubility)): 1.3 µg/mL (≈ 2.68 µM) | solubility at 7 days ([2]; cyclodextrin solution, aqueous with cosolvent or surfactant or cyclodextrin, γCD 100 mM, 37° C., 7 days, read-out: Concentration of Compound I (solubility)): 19.5 µg/mL (≈ 40.2 µM) | solubility at 7 days ([2]; cyclodextrin solution, aqueous with cosolvent or surfactant or cyclodextrin, γCD 200 mM, 37° C., 7 days, read-out: Concentration of Compound I (solubility)): 29.1 µg/mL (≈ 59.9 µM) | solubility at 7 days ([2]; water without cyclodextrin, water, without cyclodextrin, read-out: Solubility in water): < 0.6 µg/mL | solubility at 7 days ([2]; βCD solution, aqueous with cosolvent or surfactant or cyclodextrin, βCD, maximum concentration used 4 mM, read-out: Maximum solubility): 6.8 µg/mL (≈ 14 µM) | solubility at 7 days ([2]; γCD solution, aqueous with cosolvent or surfactant or cyclodextrin, γCD 25 mM, 37° C., 7 days, read-out: Concentration of Compound I (solubility)): 3.2 µg/mL (≈ 6.59 µM) | solubility at 7 days ([2]; γCD solution, aqueous with cosolvent or surfactant or cyclodextrin, γCD 50 mM, 37° C., 7 days, read-out: Concentration of Compound I (solubility)): 11.4 µg/mL (≈ 23.5 µM) | solubility at 7 days ([2]; γCD solution, aqueous with cosolvent or surfactant or cyclodextrin, γCD 75 mM, 37° C., 7 days, read-out: Concentration of Compound I (solubility)): 13.6 µg/mL (≈ 28 µM) | solubility at 7 days ([2]; γCD solution, aqueous with cosolvent or surfactant or cyclodextrin, γCD, maximum concentration used 200 mM, read-out: Maximum solubility): 29.1 µg/mL (≈ 59.9 µM) | Angiogenesis (formation of new vessels) [3]: inhibited significantly
